# Entries after “also recorded” stand apart in the source; their conditions may differ.
# Assays:
# [1] = test system: PC1 null mice; settings: shown previously, Yanda et al., 2018; cited from earlier work
# [2] = test system: CK7; experiment: CK7 expression in cholangiocytes; type: cell-based, mice; settings: Pkhd1^del4/del4 cells
# From the text: (Methods and cells provided by the Yale O'Brian Center) To create the cholangiocyte cultures PKhd1del/4/del4, Garcia-Gonzalez et al., 2007, animals were crossed with mice transgenic for the Sv40 large T Antigen (strain name SV40 T-antigen JAX strain #002233). Segments of intrahepatic bile ducts were microdissected from livers perfused via the portal vein with molten agarose containing toluidine blue to mark the veins. The liver parenchyma was stripped until the biliary tree was identified and the bile duct units were seeded onto rat type I collagen coated plates. Cells were cultured under non-permissive conditions in the following medium: DMEM/F12 with 5% fetal bovine serum, 10 μL/mL insulin-transferrin selenium, 3.4 μg/mL triiodothyronine, 50,000 U penicillin/streptomycin under humidified conditions at 37° C. in 5% CO2. After one week, the cells were cultured under permissive conditions in the presence of 10 U of interferon-γ at 33° C. in 5% CO2. When confluent, cells were passaged by digesting the collagen slab below the cells (60 min; 37° C.; DMEM/F12 with 2 mg/mL dispase and 1 mg/mL collagenase type 11), then washed twice in PBS and plated onto collagen coated support systems. Clonal cell lines were generated by single cell isolation. Cells were differentiated for 10 days at 37° C. without interferon-γ for experimental use.
# [3] = test system: CFTR; experiment: Confocal colocalization of CFTR with membrane markers in cholangiocytes; type: cell-based, mice
# From the text: WGA is an apical membrane marker;
# FIG. 8B summarizes the Pearson's Correlation coefficient R. Columns represent the means±SEM.
# The Na+/K+ ATPase is a marker of the basolateral membrane, Yanda et al., 2019a;
# Confocal images taken of cells grown on transwell membranes. All images were captured with a 63× oil objective. Strips represent Z-stacks of confocal images acquired at 0.4 μm z-axis interval. Images from left to right in each row are wild-type and PKHD del4/del4 mutant cells. Scale bar is 10 μm. Unpaired t test. Western blot=Antibody 217 and Confocal=596 from the CFF antibody core at UNC;
# [4] = test system: Pkhd1^del4/del4 cholangiocytes; experiment: Cyclic AMP assay in cholangiocytes; type: cell-based, mice; settings: for cAMP levels: VX-809 (10 μM) 16 h
# Description: The experiment was repeated four times. For all graphs, P<0.05, ***P<0.001 and ****P<0.0001;
# Confluent cells were treated with VX-809 (10 μM) or DMSO for 16 h before being harvested for assay. Cyclic AMP levels were measured with a direct cAMP Enzyme Immunoassay Kit (Sigma, #CA200) according to the manufacturer's protocol. The results are expressed as pmole/mL.
# [5] = test system: CFTR; experiment: CFTR colocalization in bile duct epithelia of Pkhd1^del3-4/del3-4 mice; type: in vivo; settings: 30 mg/kg every other day for 30 days
# Description: FIG. 13A and FIG. 13B show CFTR and CK19 colocalization in WT and Pkhd1^del3-4/del3-4 mice bile duct epithelia. […] Merged red and green channels are shown, wherein yellow indicates colocalization; the white square indicates the area of enlargement shown. FIG. 13B summarizes the Pearson's Correlation coefficient R. Bars represent the means±SEM. Samples were incubated with 5 μg/ml primary antibody CFTR (596) and CK19 (Invitrogen #PA5-29548) in blocking buffer for 16 hours at 4° C. Goat anti-rabbit Alexa Fluor 594 and anti-mouse Alexa Flour 488 conjugated secondary antibodies were used at a 1/250 dilution for 1 hour to label the proteins. Scale bar is 10 μm. **P<0.01, ****P<0.0001.
# FIG. 14A and FIG. 14B show CFTR and E-Cadherin colocalization in WT and Pkhd1^del3-4/del3-4 mice bile duct epithelia. […] Merged red and green channels are shown, wherein yellow indicates colocalization; the white square indicates the area of enlargement shown. E-Cadherin is a marker of the lateral junctional membrane of epithelial cells (see, e.g., Bruser (2017) Adherens Junctions on the Move-Membrane Trafficking of E-Cadherin. Cold Spring Harb. Perspect. Biol. 9, a029140, incorporated herein by reference). FIG. 14B summarizes the Pearson's Correlation coefficient R in mutant cells. Samples were incubated with 5 μg/ml primary antibody CFTR (596) and eCadherin (R&D #AF748) in blocking buffer for 16 hours at 4° C. Goat anti-mouse Alexa Fluor 594 and anti-goat Alexa Flour 488 conjugated secondary antibodies were used at a 1/250 dilution for 1 hour to label the proteins. Scale bar is 10 μm. As shown by the data, Pkhd1^del3-4/del3-4 cholangiocytes have much greater colocalization of CFTR with the apical/lateral marker compared to WT cells. VX-809 treatment decreases E-cadherin colocalization of CFTR in mutant mice cells. All images were captured with a 63× oil objective. Significance was analyzed using unpaired t test. […]
# FIG. 15A and FIG. 15B show CFTR and Na/K ATPase colocalization in WT and Pkhd1^del3-4/del3-4 mice bile duct epithelia. […] Significance was analyzed using unpaired t test. […]
substance,measurement,setting,value
lumacaftor [VX-809],cysts in PC1 null mice,[1],can reduce cysts
same,CK7 expression,[2],increased
same,"CFTR colocalization with Na+/K+ ATPase (basolateral membrane), Pearson's Correlation coefficient R",[3]; Pkhd1del4/del4 cholangiocytes on transwell membranes,increases the colocalization with the basolateral membrane; also recorded: increases basolateral colocalization of CFTR
same,"CFTR colocalization with WGA (apical cell membrane), Pearson's Correlation coefficient R",[3]; VX-809 (10 μM),reduces colocalization
same,CFTR at the cilia,[3]; summary statement,increases CFTR at the basolateral membrane and at the cilia
same,cAMP reduction compared with inhibitor 172,[4]; Pkhd1del4/del4 cholangiocytes,reduces cAMP more effectively than the inhibitor 172
same,cAMP levels,[4]; absence of forskolin,reduces cAMP levels; also recorded: reduced the levels of cAMP
same,cAMP levels,[4]; presence of forskolin (100 μM) for 30 min,reduces cAMP levels; also recorded: reduced the levels of cAMP
same,CFTR-CK19 colocalization,[5],significantly lowered the colocalization
same,CFTR-Na/K ATPase colocalization (basolateral membrane),[5],increased the colocalization with the basolateral membrane; also recorded: significantly increased CFTR-Na/K ATPase colocalization
same,CFTR-eCadherin colocalization,[5],significantly lowered the colocalization

# Reference: patent US20220331301A1, “CYSTIC FIBROSIS TRANSMEMBRANE CONDUCTANCE REGULATOR MODULATORS FOR TREATING AUTOSOMAL RESESSIVE POLYCYSTIC KIDNEY DISEASE” (The Johns Hopkins University, priority 2021, published 2022)
